According to paper PMC3243694, “Integrated Dataset of Screening Hits against Multiple Neglected Disease Pathogens” (PLoS Neglected Tropical Diseases, 2011):

What was measured:
[1] = test system: Schistosoma mansoni adult worms; experiment: Anti-Schistosoma activity assay (adult worm motility); type: cell-based; conditions: S. mansoni adult worms; 12.5 µM (method: 10 µg/ml or 12.5 µM)
How it was run: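 Puerto Rican strain S. mansoni adults were screened ex vivo, some compounds after a primary larval assay. Activity was judged against schistosomes in culture.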

Onchocerca adult worms = type: cell-based
Text: In some cases, particularly for the antifilarial screens, a second whole organism test with adult stage parasites is included prior to animal evaluation. The decision to utilize microfilariae for primary screening was based on throughput and biological considerations. It is difficult to acquire enough adult filariae to enable screening more than 1000 compounds per year, a rate far lower than needed for timely evaluation of the available compounds. In light of this situation, and considering that we are targeting molecules that are active on both stages, microfilariae screening was adopted as a suitable filter to identify compounds with potential macrofilaricidal activity.
4240 compound s were screened against O. ochengi at the University of Buea in Cameroon, while a subset of […] compounds was successfully screened in UK by the Northwick Park Institute for Medical Research against O. lienalis, at a uniform molarity. […] After removing molecules that were toxic to mammalian cells (IC50<5 µg/ml), 292 molecules remained for further evaluation. […] From the latter sub-set, […] distinct chemical series and one singleton [structure # 35] were active against both microfilaria and adults. One series [structures # 2, 3] was deemed not interesting due to lack of selectivity against mammalian cells. The remaining series is being transferred to ANDI for further progression as part of a new collaboration.

[2] = test system: Plasmodium falciparum K1 strain; experiment: Anti-Plasmodium activity assay (Malstat); type: cell-based; conditions: P. falciparum K1, 72 h
[3] = test system: MRC-5 cell line (diploid human embryonic lung fibroblast); experiment: Cytotoxicity on MRC-5 cells; type: cell-based
How it was run: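 MRC-5 diploid human embryonic lung fibroblasts were used to assess compound cytotoxicity.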

[4] = test system: Trypanosoma cruzi, Tulahuen CL2 strain; experiment: Antitrypanosomal activity assay, T. cruzi in MRC-5 cells; type: cell-based; conditions: T. cruzi Tulahuen CL2 in MRC-5 cells, 7 days
How it was run: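 Intracellular amastigotes of T. cruzi Tulahuen CL2 beta-galactosidase strain grown in MRC-5SV2 cells in MEM with 5% heat-inactivated fetal calf serum. Inoculum 4.10^3 cells/well plus 4.10^4 parasites/well; potency expressed as IC50 in µg/ml.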

[5] = test system: Trypanosoma brucei brucei Squib-427 strain; experiment: Antitrypanosomal activity assay, T. brucei (resazurin); type: cell-based; conditions: T. brucei Squib 427 bloodstream forms, 72 h
[6] = test system: Onchocerca (lienalis or ochengi) microfilariae; experiment: Anti-Onchocerca microfilariae motility assay; type: cell-based, Onchocerca lienalis or O. ochengi
[7] = test system: Brugia malayi microfilariae; experiment: Anti-Brugia malayi microfilariae motility assay; type: cell-based; conditions: B. malayi microfilariae; 12.5 µM
[8] = test system: Brugia malayi adult worms; experiment: Anti-Brugia malayi adult worm motility assay; type: cell-based; conditions: B. malayi adult worms; 12.5 µM
Text: In some cases, particularly for the antifilarial screens, a second whole organism test with adult stage parasites is included prior to animal evaluation. The decision to utilize microfilariae for primary screening was based on throughput and biological considerations. It is difficult to acquire enough adult filariae to enable screening more than 1000 compounds per year, a rate far lower than needed for timely evaluation of the available compounds. In light of this situation, and considering that we are targeting molecules that are active on both stages, microfilariae screening was adopted as a suitable filter to identify compounds with potential macrofilaricidal activity. As result of logistics issues attributed to lost shipments of some compounds, only 6160 molecules of the 10,000 compound set were tested, at a uniform molarity, against B. malayi, including 6063 against microfilariae and 756 against adult worms (these sets overlap). […] Greatest priority was given to compounds with activity against adult worms, as no macrofilaricide is available for use in control campaigns and the activity of ivermectin as a microfilaricidal agent is unlikely to be bettered in a new series. […] These were titrated to determine an IC50 value to support prioritization. Following cytotoxicity triage [structures # 1, 4, 6], eight compounds met the activity criterion for adult worms (i.e., 100% inhibition of adult worm motility), four of which were also active against microfilariae [structures # 14, 29, 30, 32]. […] Of these, the most interesting was TDR76699 [structure # 29]; this compound has very good activity against adult worms (IC50 = 0.1 µg/ml) and is also active against microfilariae (IC50 = 0.7 µg/ml). None of the other compounds tested against adult parasites had IC50 values ≤0.5 µg/ml, a threshold which would reduce concerns about specificity. However, a few series [structures # 31, 33, 34], appear interesting for future medicinal chemistry projects.

CSCc1csc(NC(=O)Cc2ccc(Cl)cc2)n1 [TDR81206]
SCH % Motility Reduction at 12.5µM [1]: 0%
ONC/AW % worm Mortality @ 12.5µM (Onchocerca adult worms): 75%
MAL IC50 [2]: 5.98 µg/mL
CYT IC50 [3]: 3.7 µg/mL
CHA IC50 [4]: 2.47 µg/mL
HAT IC50 [5]: 3.0 µg/mL
ONC/MF % Motility Reduction at 12.5µM [6]: 100%

Cc1cc(NC(=O)CSc2ccc3nnc(-c4cccs4)n3n2)no1 [TDR78826]
SCH % Motility Reduction at 12.5µM [1]: 0%
ONC/AW % worm Mortality @ 12.5µM (Onchocerca adult worms): 0%
MAL IC50 [2]: 0.16 µg/mL
CYT IC50 [3]: >11.17 µg/mL
CHA IC50 [4]: 4.97 µg/mL
ONC/MF % Motility Reduction at 12.5µM [6]: 6.7%

CCCc1cc(=O)[nH]c(-n2nc(C)cc2NC(=O)C23CC4CC(CC(C4)C2)C3)n1 [TDR79936]
SCH % Motility Reduction at 12.5µM [1]: 100%
ONC/AW % worm Mortality @ 12.5µM (Onchocerca adult worms): 75%
MAL IC50 [2]: <0.12 µg/mL
CYT IC50 [3]: <0.12 µg/mL
CHA IC50 [4]: <0.12 µg/mL
HAT IC50 [5]: <0.12 µg/mL
ONC/MF % Motility Reduction at 12.5µM [6]: 100%

O=C(COc1ccc(Cl)cc1Cl)Nc1nnc(C23CC4CC(CC(C4)C2)C3)s1 [TDR76660]
SCH % Motility Reduction at 12.5µM [1]: 0%
MAL IC50 [2]: >13.15 µg/mL
CYT IC50 [3]: >13.15 µg/mL
CHA IC50 [4]: >13.15 µg/mL
LF/MF % Motility Reduction at 12.5µM [7]: 100%
LF/AW % Motility Reduction at 12.5µM [8]: 0%
HAT IC50 [5]: >13.15 µg/mL
ONC/MF % Motility Reduction at 12.5µM [6]: 0%
